Assay results published in US9210928B2, “Plant development control composition” (Syngenta Crop Protection, LLC, priority 2008, dated 2015).
“Also recorded” adds a separate entry of the source.

Experiments:
[1] = molecular target: LeCCD1a (Solanum lycopersicum, UniProt Q6E4P5); assay: In vitro LeCCD1a enzyme assay (recombinant cell-free extract, colourimetric, apo-8′-carotenal substrate); assay type: biochemical, tomato (Solanum lycopersicum); details: for inhibition at 100 µM: read-out: LeCCD1a (9,10/9′,10′) Inhibition @ 100 μM (%)
Protocol: In vitro LeCCD1a enzyme assay—We over-expressed LeCCD1a in E. coli, as a GST-fusion protein (supplemental methods). The in vitro assay of LeCCD1a was based on reported methods (37), and was carried out in a 200 μl total volume in a 96-well microtitre plate, with the signal detected at 485 nm. To prepare substrate solution for each assay, 5 μl of 4% (w/v in ethanol) apo-8′-carotenal (Sigma) was mixed with 25 μl of 4% (w/v in ethanol) β-octylglucoside (Sigma), the ethanol was then evaporated under nitrogen, and the residue dissolved in 150 μl PBS buffer containing 10 mM sodium ascorbate by incubation at 20° C. for 30 min. 50 μl of cell-free extract containing recombinant LeCCD1a was added, and the reactions monitored over 30 min at 20° C.
(§1) For the production of cell-free extracts of LeCCD1a and LeNCED1, cultures were grown to an OD of 0.6 at 37° C., then isopropyl β-D-1-thiogalactopyranoside (IPTG) was added to 0.2 mM and the cultures grown overnight at 20° C. The cells (200 ml cultures) were harvested by centrifugation (5000 rpm, 10 min) and the pellet re-suspended in 4 ml PBS, 0.1% Triton-X 100. Lysozyme was added to a final concentration of 25 μg ml^−1 and the solution incubated at room temperature for 15 min before sonication (3×30 s at 18Ω) on ice. The lysate was then centrifuged (13000 rpm, 15 min, 4° C.) and the supernatant used for the assay.
(§2) Specificity of inhibition in vitro for tomato genes LeNCED1 and LeCCD1a—In order to screen the inhibitors against enzymes which cleave carotenoids at the 9,10 position, we used the recombinant tomato LeCCD1a protein (44), because this type of enzyme can be studied using an in vitro colourimetric assay with β-apo-8′-carotenal as substrate (37). To establish the specificity of the inhibitors, they were also tested against the tomato LeNCED1 recombinant protein which cleaves 9-cis carotenoids at the 11,12 position (45). For this enzyme, the cleavage reaction was monitored by C18 reverse phase HPLC, using 9′-cis-neoxanthin as substrate.

[2] = molecular target: T1, LeNCED1 (Solanum lycopersicum, UniProt O24023); assay: In vitro NCED enzyme assay (recombinant LeNCED1 cell-free extract, HPLC, 9′-cis-neoxanthin substrate); assay type: biochemical, tomato
T1 construct: made in house; host or cells: E. coli Rosetta (DE3); crude cell-free extract
Protocol: In vitro NCED enzyme assay—We over-expressed LeNCED1 in E. coli, as an N-terminal His6-fusion protein (supplemental methods). Cell-free extract containing recombinant LeNCED1 was prepared in 100 mM bis-tris buffer (pH 6.7). 15 μl extract was pre-activated by addition of iron(II) sulphate (20 mM, 1 μl) and ascorbic acid (20 mM, 1 μl) on ice for 2 min, prior to use. This aliquot of enzyme was then added to an assay (150 μl total volume) containing 100 mM bis-tris buffer (pH 6.7), 0.05% v/v Triton X-100, 1.0 mg/ml catalase, and 3 μg 9′-cis-neoxanthin. The 9′-cis-neoxanthin substrate was prepared as described in supplemental methods. The enzyme assay was incubated for 15 min in the dark at 20° C. Water (700 μl) was then added, and the products extracted with ethyl acetate (3×1 ml). The organic solvent was removed at reduced pressure, the residue was dissolved in methanol (200 μl), and then 100 μl was injected onto a Phenomenex C18 reverse phase HPLC column, and a gradient of 5-10% methanol in acetonitrile/0.05% triethylamine was applied at 0.5 ml/min over 20 min, detecting at 440 nm. NCED inhibition assays contained 1-100 μM inhibitor; inhibition was calculated from the product formation after 15 min, compared to a control assay with no inhibitor present.
as §1, §2

[3] = 100 μM inhibitor, E. coli cell extract with recombinant CCD

Chain of LeCCD1a (Q6E4P5 1-545): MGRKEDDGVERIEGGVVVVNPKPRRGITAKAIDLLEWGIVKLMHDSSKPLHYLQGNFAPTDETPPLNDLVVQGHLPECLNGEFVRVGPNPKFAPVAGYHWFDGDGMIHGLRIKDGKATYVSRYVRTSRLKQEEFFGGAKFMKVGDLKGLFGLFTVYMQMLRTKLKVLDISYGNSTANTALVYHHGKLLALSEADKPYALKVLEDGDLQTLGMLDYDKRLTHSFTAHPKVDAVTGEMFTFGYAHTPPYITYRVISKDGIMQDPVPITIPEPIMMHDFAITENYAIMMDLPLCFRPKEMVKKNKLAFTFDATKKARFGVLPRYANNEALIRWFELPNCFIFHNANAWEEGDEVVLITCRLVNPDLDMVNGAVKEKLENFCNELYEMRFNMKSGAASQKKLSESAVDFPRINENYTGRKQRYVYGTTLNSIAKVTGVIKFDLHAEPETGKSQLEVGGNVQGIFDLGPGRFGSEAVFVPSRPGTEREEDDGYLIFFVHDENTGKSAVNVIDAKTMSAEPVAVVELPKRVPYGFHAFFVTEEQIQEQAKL
T1 sequence (O24023 17-605): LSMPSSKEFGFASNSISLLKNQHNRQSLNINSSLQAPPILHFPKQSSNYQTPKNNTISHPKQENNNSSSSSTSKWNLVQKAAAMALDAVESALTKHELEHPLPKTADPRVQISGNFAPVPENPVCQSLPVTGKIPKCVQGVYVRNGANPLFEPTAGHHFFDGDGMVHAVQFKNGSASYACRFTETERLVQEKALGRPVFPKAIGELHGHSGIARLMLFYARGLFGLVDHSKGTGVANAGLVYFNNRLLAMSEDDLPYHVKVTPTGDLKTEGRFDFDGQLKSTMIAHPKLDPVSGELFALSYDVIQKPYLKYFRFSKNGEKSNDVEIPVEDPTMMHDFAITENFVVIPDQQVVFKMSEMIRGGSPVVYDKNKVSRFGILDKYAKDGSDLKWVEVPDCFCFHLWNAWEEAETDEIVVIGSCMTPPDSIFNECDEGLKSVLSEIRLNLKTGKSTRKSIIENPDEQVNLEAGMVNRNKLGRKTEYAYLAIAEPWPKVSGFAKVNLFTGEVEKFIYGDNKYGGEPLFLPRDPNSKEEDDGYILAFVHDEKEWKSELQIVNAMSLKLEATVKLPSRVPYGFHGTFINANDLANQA

| Structure (SMILES) | inhibition of LeCCD1 in vitro (in words) [1] | inhibition at 100 µM [1] | inhibition of LeNCED1 in vitro (in words) [2] | LeCCD1a (9,10/9′,10′) Inhibition @ 100 μM (%) [1, 3] | LeNCED1 (11,12) Inhibition @ 100 μM (%) [2, 3] |
| --- | --- | --- | --- | --- | --- |
| COc1ccc(C(=O)N(O)Cc2ccc(F)cc2)cc1 [Compound F2, N-(4-fluorobenzyl)-4-methoxybenzoyl hydroxamic acid] | high levels of inhibition of LeCCD1 | > 95% | little or no inhibition of LeNCED1 |  |  |
| COc1ccc(C(=O)N(O)Cc2ccccc2)cc1 [Compound F1, N-benzyl-4-methoxybenzoyl hydroxamic acid] | high levels of inhibition of LeCCD1 | > 95% | little or no inhibition of LeNCED1; also recorded: no inhibition of LeNCED 1 was detected |  |  |
| COc1ccc(C(=O)N(O)Cc2ccccc2)cc1OC [Compound F3, N-benzyl-3,4-dimethoxybenzoyl hydroxamic acid] |  |  |  | 50% | 2% |
